A short description of this data set: Stability of crystalline forms of 5-CNAC (room temperature, humidity, storage).

Each structure is given as a SMILES string.

Take `O=C([O-])CCCCCCCNC(=O)c1cc(Cl)ccc1[O-].[Na+].[Na+]` [Form III, di-sodium salt of N-(5-chlorosalicyloyl)-8-aminocaprylic acid]: the “stability as a function of relative humidity” value (relative humidity below about 50%) is recorded as “unstable at a relative humidity below about 50%”.

With `O=C([O-])CCCCCCCNC(=O)c1cc(Cl)ccc1[O-].[Na+].[Na+]` [Form IV, di-sodium salt of N-(5-chlorosalicyloyl)-8-aminocaprylic acid], the “form conversion on storage” value (storage of the mixture of Forms I and IV (Example 5) over time) is given as “convert to Form I over time on storage”.

The record behind these values is patent US9238074B2, “Crystalline forms of the di-sodium salt of N-(5-chlorosalicyloyl)-8-aminocaprylic acid” (Emisphere Technologies, Inc., priority 2005, dated 2016).
